Consider seven compounds from patent publication US8729017B2 (priority 2011, dated 2014).

Common to all, as to assay type: cell-based
One experiment concerns the target T1, GIP receptor (Homo sapiens, UniProt P48546).
T1 construct: expressed in transfected cells; host or cells: HEK293
T1 sequence (P48546 22-466): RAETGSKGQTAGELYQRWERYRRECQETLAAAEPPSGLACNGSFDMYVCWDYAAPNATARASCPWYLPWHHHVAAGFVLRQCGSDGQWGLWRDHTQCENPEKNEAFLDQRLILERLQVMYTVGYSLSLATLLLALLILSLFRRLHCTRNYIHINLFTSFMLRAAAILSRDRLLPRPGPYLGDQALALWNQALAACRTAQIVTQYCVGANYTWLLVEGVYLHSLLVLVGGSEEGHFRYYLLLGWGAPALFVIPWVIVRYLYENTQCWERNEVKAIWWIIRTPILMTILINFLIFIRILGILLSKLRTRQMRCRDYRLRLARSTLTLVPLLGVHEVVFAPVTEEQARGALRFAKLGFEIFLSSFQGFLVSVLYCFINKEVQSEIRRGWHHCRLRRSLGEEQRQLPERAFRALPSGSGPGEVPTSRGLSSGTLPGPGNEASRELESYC
The experiment in a line: in vitro agonist activity at the GIP receptor (cAMP luciferase reporter, HEK293 cells). Particulars: in vitro agonist activity; read-out: EC50 (nM) at GIP receptor. The procedure:
It is understood that a lower EC50 indicates higher activity or potency at the receptor. […] The ability of each peptide to induce cAMP was measured in a firefly luciferase-based reporter assay. […] At the end of the incubation, 100 μL of LucLite luminescence substrate reagent (Perkin Elmer, Wellesley, Mass.) were added to each well. […] In some instances, the in vitro agonist activity at the GIP receptor was also tested.
A general note: A reporter such as luciferase makes a cellular process visible.

The target in a further experiment is T2, GLP-1 receptor (Homo sapiens, UniProt P43220).
T2 construct: expressed in transfected cells; host or cells: HEK293
Put plainly: cAMP induction, firefly luciferase reporter assay in HEK293 cells co-transfected with the GLP-1 receptor. Particulars: HEK293 cells, cAMP-responsive luciferase reporter, 5 hours incubation. How it is done:
(§1) The ability of each peptide to induce cAMP was measured in a firefly luciferase-based reporter assay. […] At the end of the incubation, 100 μL of LucLite luminescence substrate reagent (Perkin Elmer, Wellesley, Mass.) were added to each well. […] In some instances, the in vitro agonist activity at the GIP receptor was also tested.

Another experiment has as its target T3, glucagon receptor (Homo sapiens, UniProt P47871).
T3 construct: expressed in transfected cells; host or cells: HEK293
Put plainly: cAMP induction, firefly luciferase reporter assay in HEK293 cells co-transfected with the glucagon receptor. Conditions: HEK293 cells, cAMP-responsive luciferase reporter, 5 hours incubation. How it is done:
as §1

A word on the EC50: it is the concentration at which the effect is half-maximal. By pEC50 is commonly meant the EC50 on a negative log10 scale, so that one unit is a factor of ten. High values mean a low EC50, low ones a high EC50.

pEC50: −log10 of the molar value. Numbered stars: 1 amine (or outer) side, 2 acyl side, 3 side chain; on linkers, the order of the positions; unused ones are H or OH. Square brackets hold non-standard residues; d marks the D form. Side chains are listed from the residue outwards. Peptide text beside a SMILES is read from it. * marks the point of attachment. γGlu = O=C(O)[C@H](CCC(=O)[*:2])N[*:1]; Palmitoyl = CCCCCCCCCCCCCCCC(=O)*; Aib = CC(C)(N)C(=O)O

T3 sequence (P47871 26-477, species assumed): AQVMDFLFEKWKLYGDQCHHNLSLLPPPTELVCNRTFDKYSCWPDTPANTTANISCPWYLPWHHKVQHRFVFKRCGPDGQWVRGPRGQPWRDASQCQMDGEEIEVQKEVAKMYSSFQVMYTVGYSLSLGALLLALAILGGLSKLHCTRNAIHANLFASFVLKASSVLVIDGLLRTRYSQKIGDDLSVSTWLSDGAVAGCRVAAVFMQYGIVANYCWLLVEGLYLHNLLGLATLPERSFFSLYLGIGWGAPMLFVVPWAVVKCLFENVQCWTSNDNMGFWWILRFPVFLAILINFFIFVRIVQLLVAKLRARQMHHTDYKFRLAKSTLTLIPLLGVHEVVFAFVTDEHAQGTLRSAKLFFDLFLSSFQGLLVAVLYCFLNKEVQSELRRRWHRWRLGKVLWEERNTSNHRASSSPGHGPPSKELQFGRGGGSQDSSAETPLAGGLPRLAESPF
T2 sequence (P43220 24-463): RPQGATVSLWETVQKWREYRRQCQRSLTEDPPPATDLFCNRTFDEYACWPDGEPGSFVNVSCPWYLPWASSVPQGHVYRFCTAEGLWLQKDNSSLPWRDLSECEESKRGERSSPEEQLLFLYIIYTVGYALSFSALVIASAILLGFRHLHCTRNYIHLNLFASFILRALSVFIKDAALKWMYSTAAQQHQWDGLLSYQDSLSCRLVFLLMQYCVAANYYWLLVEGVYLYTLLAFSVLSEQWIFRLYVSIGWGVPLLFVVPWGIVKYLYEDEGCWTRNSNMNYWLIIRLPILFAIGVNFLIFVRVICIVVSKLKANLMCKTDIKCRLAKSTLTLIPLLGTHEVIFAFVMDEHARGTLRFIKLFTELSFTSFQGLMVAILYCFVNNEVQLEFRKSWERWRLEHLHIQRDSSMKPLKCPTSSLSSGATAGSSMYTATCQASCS

As for `CCCCCCCCCCCCCCCC(=O)N[C@@H](CCC(=O)NCCCC[C@H](NC(=O)[C@H](CC(=O)O)NC(=O)[C@H](CO)NC(=O)[C@@H](NC(=O)[C@H](Cc1ccccc1)NC(=O)[C@@H](NC(=O)CNC(=O)[C@H](CCC(N)=O)NC(=O)[C@@H](CO)NC(=O)[C@@H](N)Cc1c[nH]cn1)[C@@H](C)O)[C@@H](C)O)C(=O)N[C@@H](CO)C(=O)N[C@@H](CCCCN)C(=O)N[C@@H](Cc1ccc(O)cc1)C(=O)N[C@@H](CC(C)C)C(=O)N[C@@H](CC(=O)O)C(=O)N[C@@H](CCC(=O)O)C(=O)N[C@@H](CCCNC(=N)N)C(=O)N[C@@H](C)C(=O)N[C@@H](C)C(=O)N[C@@H](CCC(N)=O)C(=O)N[C@@H](CC(=O)O)C(=O)N[C@@H](Cc1ccccc1)C(=O)N[C@H](C(=O)N[C@@H](CCC(N)=O)C(=O)N[C@@H](Cc1c[nH]c2ccccc12)C(=O)N[C@@H](CC(C)C)C(=O)N[C@@H](CC(C)C)C(=O)N[C@@H](CCCCN)C(=O)NCC(=O)N[C@@H](CCCNC(=N)N)C(=O)NCC(N)=O)C(C)C)C(=O)O` [compound 27], on GIP receptor, the EC50 is 2.12 nM. Further, the pEC50 on GLP-1 receptor is 11.30; on glucagon receptor, 10.66.

Regarding `CCCCCCCCCCCCCCCC(=O)N[C@@H](CCC(=O)NCCCC[C@H](NC(=O)[C@H](CC(=O)O)NC(=O)[C@H](CO)NC(=O)[C@@H](NC(=O)[C@H](Cc1ccccc1)NC(=O)[C@@H](NC(=O)CNC(=O)[C@H](CCC(N)=O)NC(=O)C(C)(C)NC(=O)[C@@H](N)Cc1c[nH]cn1)[C@@H](C)O)[C@@H](C)O)C(=O)N[C@@H](CO)C(=O)N[C@@H](CCCCN)C(=O)N[C@@H](Cc1ccc(O)cc1)C(=O)N[C@@H](CC(C)C)C(=O)N[C@@H](CC(=O)O)C(=O)NC(C)(C)C(=O)N[C@@H](CCCNC(=N)N)C(=O)N[C@@H](C)C(=O)N[C@@H](C)C(=O)N[C@@H](CCC(N)=O)C(=O)N[C@@H](CC(=O)O)C(=O)N[C@@H](Cc1ccccc1)C(=O)N[C@H](C(=O)N[C@@H](CCC(N)=O)C(=O)N[C@@H](Cc1c[nH]c2ccccc12)C(=O)N[C@@H](CC(C)C)C(=O)N[C@@H](CCCCN)C(=O)N[C@@H](CC(=O)O)C(=O)NCC(=O)N[C@@H](CCCNC(=N)N)C(=O)NCC(N)=O)C(C)C)C(=O)O` [compound 36] (H-H[Aib]QGTFTSDK([γGlu-Palmitoyl])SKYLD[Aib]RAAQDFVQWLKDGRG-NH2), on GIP receptor, the concentration giving a half-maximal response (EC50) is 0.47 nM. Further, the pEC50 at GLP-1 receptor was 11.52; on glucagon receptor, 10.55.

With `CCCCCCCCCCCCCCCC(=O)NCCCC[C@H](NC(=O)[C@H](CC(=O)O)NC(=O)[C@H](CO)NC(=O)[C@@H](NC(=O)[C@H](Cc1ccccc1)NC(=O)[C@@H](NC(=O)CNC(=O)[C@H](CCC(N)=O)NC(=O)C(C)(C)NC(=O)[C@@H](N)Cc1c[nH]cn1)[C@@H](C)O)[C@@H](C)O)C(=O)N[C@@H](CO)C(=O)N[C@@H](CCCCN)C(=O)N[C@@H](Cc1ccc(O)cc1)C(=O)N[C@@H](CC(C)C)C(=O)N[C@@H](CC(=O)O)C(=O)N[C@@H](CCC(=O)O)C(=O)N[C@@H](CCCNC(=N)N)C(=O)N[C@@H](CCCNC(=N)N)C(=O)N[C@@H](C)C(=O)NC(C)(C)C(=O)N[C@@H](CC(=O)O)C(=O)N[C@@H](Cc1ccccc1)C(=O)N[C@H](C(=O)N[C@@H](CCC(N)=O)C(=O)N[C@@H](Cc1c[nH]c2ccccc12)C(=O)N[C@@H](CC(C)C)C(=O)N[C@@H](CCSC)C(=O)N[C@@H](CC(N)=O)C(=O)N[C@H](C(N)=O)[C@@H](C)O)C(C)C` [compound 59] (H-H[Aib]QGTFTSDK(Palmitoyl)SKYLDERRA[Aib]DFVQWLMNT-NH2), the EC50 on GIP receptor came out at 7.48 nM. Besides, the negative-log EC50 (pEC50) at GLP-1 receptor is 11.00; at glucagon receptor, 10.29.

As to `CCCCCCCCCCCCCCCC(=O)N[C@@H](CCC(=O)NCCCC[C@H](NC(=O)[C@H](CC(=O)O)NC(=O)[C@H](CO)NC(=O)[C@@H](NC(=O)[C@H](Cc1ccccc1)NC(=O)[C@@H](NC(=O)CNC(=O)[C@H](CCC(N)=O)NC(=O)[C@@H](CO)NC(=O)[C@H](Cc1c[nH]cn1)NC(C)=O)[C@@H](C)O)[C@@H](C)O)C(=O)N[C@@H](CO)C(=O)N[C@@H](CCCCN)C(=O)N[C@@H](Cc1ccc(O)cc1)C(=O)N[C@@H](CC(C)C)C(=O)N[C@@H](CC(=O)O)C(=O)N[C@@H](CCC(=O)O)C(=O)N[C@@H](CCCNC(=N)N)C(=O)N[C@@H](C)C(=O)N[C@@H](C)C(=O)N[C@@H](CCC(N)=O)C(=O)N[C@@H](CC(=O)O)C(=O)N[C@@H](Cc1ccccc1)C(=O)N[C@H](C(=O)N[C@@H](CCC(N)=O)C(=O)N[C@@H](Cc1c[nH]c2ccccc12)C(=O)N[C@@H](CC(C)C)C(=O)N[C@@H](CC(C)C)C(=O)N[C@@H](CC(=O)O)C(=O)N[C@H](C(N)=O)[C@@H](C)O)C(C)C)C(=O)O` [compound 21], on GIP receptor, the EC50 amounted to 4.5 nM. Also, the pEC50 was 11.05 at GLP-1 receptor and 11.30 on glucagon receptor.

On to `CCCCCCCCCCCCCCCC(=O)N[C@@H](CCC(=O)NCCCC[C@H](NC(=O)[C@H](CC(=O)O)NC(=O)[C@H](CO)NC(=O)[C@@H](NC(=O)[C@H](Cc1ccccc1)NC(=O)[C@@H](NC(=O)CNC(=O)[C@H](CCC(N)=O)NC(=O)C(C)(C)NC(=O)[C@@H](N)Cc1c[nH]cn1)[C@@H](C)O)[C@@H](C)O)C(=O)N[C@@H](CO)C(=O)N[C@@H](CCCCN)C(=O)N[C@@H](Cc1ccc(O)cc1)C(=O)N[C@@H](CC(C)C)C(=O)N[C@@H](CC(=O)O)C(=O)NC(C)(C)C(=O)N[C@@H](CCCNC(=N)N)C(=O)N[C@@H](C)C(=O)N[C@@H](C)C(=O)N[C@@H](CCC(N)=O)C(=O)N[C@@H](CC(=O)O)C(=O)N[C@@H](Cc1ccccc1)C(=O)N[C@H](C(=O)N[C@@H](CCC(N)=O)C(=O)N[C@@H](Cc1c[nH]c2ccccc12)C(=O)N[C@@H](CC(C)C)C(=O)N[C@@H](CCSC)C(=O)N[C@@H](CCCCN)C(=O)N[C@H](C(=O)N[C@@H](CCCCN)C(=O)N[C@H](CCC(=O)O)C(=O)O)[C@@H](C)O)C(C)C)C(=O)O` [compound 60] (H-H[Aib]QGTFTSDK([γGlu-Palmitoyl])SKYLD[Aib]RAAQDFVQWLMKTK[dE]-OH; N-terminus assumed), for which, on GIP receptor, the EC50 amounted to 147 nM. Besides, the pEC50 on GLP-1 receptor was 10.48; on glucagon receptor it was 8.34.

`CCCCCCCCCCCCCCCC(=O)N[C@@H](CCC(=O)NCCCC[C@H](NC(=O)[C@H](CC(=O)O)NC(=O)[C@H](CO)NC(=O)[C@@H](NC(=O)[C@H](Cc1ccccc1)NC(=O)[C@@H](NC(=O)CNC(=O)[C@H](CCC(N)=O)NC(=O)C(C)(C)NC(=O)[C@@H](N)Cc1c[nH]cn1)[C@@H](C)O)[C@@H](C)O)C(=O)N[C@@H](CO)C(=O)N[C@@H](CCCCN)C(=O)N[C@@H](Cc1ccc(O)cc1)C(=O)N[C@@H](CC(C)C)C(=O)N[C@@H](CC(=O)O)C(=O)NC(C)(C)C(=O)N[C@@H](CCCNC(=N)N)C(=O)N[C@@H](C)C(=O)N[C@@H](C)C(=O)N[C@@H](CCC(N)=O)C(=O)N[C@@H](CC(=O)O)C(=O)N[C@@H](Cc1ccccc1)C(=O)N[C@H](C(=O)N[C@@H](CCC(N)=O)C(=O)N[C@@H](Cc1c[nH]c2ccccc12)C(=O)N[C@@H](CC(C)C)C(=O)N[C@@H](CC(C)C)C(=O)N[C@@H](CC(=O)O)C(=O)NCC(=O)N[C@@H](CCCNC(=N)N)C(=O)NCC(N)=O)C(C)C)C(=O)O` [compound 30] (H-H[Aib]QGTFTSDK([γGlu-Palmitoyl])SKYLD[Aib]RAAQDFVQWLLDGRG-NH2): the concentration giving a half-maximal response (EC50) at GIP receptor worked out at 9.06 nM. The figures for the pEC50 on GLP-1 receptor and on glucagon receptor were 11.09 and 9.03, respectively.

As to `CCCCCCCCCCCCCCCC(=O)N[C@@H](CCC(=O)N[C@@H](CCC(=O)NCCCC[C@H](NC(=O)[C@H](CC(=O)O)NC(=O)[C@H](CO)NC(=O)[C@@H](NC(=O)[C@H](Cc1ccccc1)NC(=O)[C@@H](NC(=O)CNC(=O)[C@H](CCC(N)=O)NC(=O)C(C)(C)NC(=O)[C@@H](N)Cc1c[nH]cn1)[C@@H](C)O)[C@@H](C)O)C(=O)N[C@@H](CO)C(=O)N[C@@H](CCCCN)C(=O)N[C@@H](Cc1ccc(O)cc1)C(=O)N[C@@H](CC(C)C)C(=O)N[C@@H](CC(=O)O)C(=O)NC(C)(C)C(=O)N[C@@H](CCCNC(=N)N)C(=O)N[C@@H](C)C(=O)N[C@@H](C)C(=O)N[C@@H](CCC(N)=O)C(=O)N[C@@H](CC(=O)O)C(=O)N[C@@H](Cc1ccccc1)C(=O)N[C@H](C(=O)N[C@@H](CCC(N)=O)C(=O)N[C@@H](Cc1c[nH]c2ccccc12)C(=O)N[C@@H](CC(C)C)C(=O)N[C@@H](CCSC)C(=O)N[C@@H](CC(=O)O)C(=O)N[C@H](C(=O)N[C@@H](CCCCN)C(=O)N[C@H](C)C(=O)O)[C@@H](C)O)C(C)C)C(=O)O)C(=O)O` [compound 32] (H-H[Aib]QGTFTSDK([γGlu-γGlu-Palmitoyl])SKYLD[Aib]RAAQDFVQWLMDTK[dA]-OH), the concentration giving a half-maximal response (EC50) at GIP receptor worked out at 2.08 nM. Also, the pEC50 at GLP-1 receptor was 11.10; on glucagon receptor, 11.15.
